Measured values from US20230157996A1, “SMALL-MOLECULE INHIBITOR TARGETING EB VIRUS NUCLEAR ANTIGEN PROTEIN, PREPARATION METHOD AND USE THEREOF” (priority 2020, published 2023).

These compounds were tested on C666-1 cells (assay: C666-1 cell viability single concentration (50 μM) inhibition rate (Resazurin)). Conditions: Homo sapiens, C6661, 72 h, 50 μM compound, 72 hours, C666-1 cells; read-out: C666-1 cell viability single concentration (50 μM) inhibition rate, Ratio* (Inh %).
Type: cell-based
Summary of the method: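 Resazurin fluorescence (560/590 nm, 3 h development) gave the proliferation inhibition rate, normalised to DMSO-treated and cell-free blank wells. Compound was tested at a single 50 μmol/L final concentration on C666-1 cells for 72 h at 37° C, with duplicate wells, after 24 h seeding.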

SMILES	inhibition at 50 µM
CCNC(=S)OC1CN(c2cccc(C(=O)OC)c2-n2cccc2)C1 [Example 160, Methyl 3-(3-((ethylthiocarbamoyl)oxy)azetidin-1-yl)-2-(1H-pyrrol-1-yl)benzoate]	30 to 50%
CCNC(=S)OC1CN(c2cccc(C(=O)O)c2-n2cccc2)C1 [Example 161, 3-(3-((ethylthiocarbamoyl)oxy)azetidin-1-yl)-2-(1H-pyrrol-1-yl)benzoic acid]	< 10%
COC(=O)c1cccc(N2CC(OC(=S)Nc3ccc(Cl)cc3Cl)C2)c1-n1cccc1 [Example 162, Methyl 3-(3-(((2,4-dichlorophenyl)thiocarbamoyl)oxy)azetidin-1-yl)-2-(1H-pyrrol-1-yl)benzoate]	10 to 30%
O=C(O)c1cccc(N2CC(OC(=S)Nc3ccc(Cl)cc3Cl)C2)c1-n1cccc1 [Example 163, 3-(3-(((2,4-dichlorophenyl)thiocarbamoyl)oxy)azetidin-1-yl)-2-(1H-pyrrol-1-yl)benzoic acid]	< 10%
COC(=O)c1cccc(N2CC(NC(=O)NC3CC3)C2)c1-n1cccc1 [Example 164, Methyl 3-(3-(3-cyclopropylureido)azetidin-1-yl)-2-(1H-pyrrol-1-yl)benzoate]	< 10%
COC(=O)c1cccc(N2CC(NC(=O)Nc3ccc(Oc4ccccc4)cc3)C2)c1-n1cccc1 [Example 165, Methyl 3-(3-(3-(4-phenoxyphenyl)ureido)azetidin-1-yl)-2-(H-pyrrol-1-yl)benzoate]	10 to 30%
COC(=O)c1cccc(N2CC(NC(=O)Nc3ccc(OC(F)(F)F)cc3)C2)c1-n1cccc1 [Example 166, Methyl 2-(1H-pyrrol-1-yl)-3-(3-(3-(4-(trifluoromethoxy)phenyl)ureido)azetidin-1-yl)benzoate]	> 50%
O=C(Nc1ccc(Oc2ccccc2)cc1)NC1CN(c2cccc(C(=O)O)c2-n2cccc2)C1 [Example 167, 3-(3-(3-(4-phenoxyphenyl)ureido)azetidin-1-yl)-2-(1H-pyrrol-1-yl)benzoic acid]	< 10%
O=C(Nc1ccc(OC(F)(F)F)cc1)NC1CN(c2cccc(C(=O)O)c2-n2cccc2)C1 [Example 168, 2-(1H-pyrrol-1-yl)-3-(3-(3-(4-(trifluoromethoxy)phenyl)ureido)azetidin-1-yl)benzoic acid]	< 10%
O=C(NC1CC1)NC1CN(c2cccc(C(=O)O)c2-n2cccc2)C1 [Example 169, 3-(3-(3-cyclopropylureido)azetidin-1-yl)-2-(1H-pyrrol-1-yl)benzoic acid]	< 10%
COC(=O)c1cccc(N2CC(NC(=O)Nc3cc(OC)cc(OC)c3)C2)c1-n1cccc1 [Example 170, Methyl 3-(3-(3-(3,5-dimethoxyphenyl)ureido)azetidin-1-yl)-2-(1H-pyrrol-1-yl)benzoate]	10 to 30%
COc1cc(NC(=O)NC2CN(c3cccc(C(=O)O)c3-n3cccc3)C2)cc(OC)c1 [Example 171, 3-(3-(3-(3,5-dimethoxyphenyl)ureido)azetidin-1-yl)-2-(1H-pyrrol-1-yl)benzoic acid]	< 10%
CCNC(=S)NC1CN(c2cccc(C(=O)OC)c2-n2cccc2)C1 [Example 172, Methyl 3-(3-(3-ethylthioureido)azetidin-1-yl)-2-(1H-pyrrol-1-yl)benzoate]	10 to 30%
CCNC(=S)NC1CN(c2cccc(C(=O)O)c2-n2cccc2)C1 [Example 173, 3-(3-(3-ethylthioureido)azetidin-1-yl)-2-(1H-pyrrol-1-yl)benzoic acid]	< 10%
COC(=O)c1cccc(N2CC(NC(=S)Nc3ccc(Cl)cc3)C2)c1-n1cccc1 [Example 174, Methyl 3-(3-(3-(4-chlorophenyl)thioureido)azetidin-1-yl)-2-(1H-pyrrol-1-yl)benzoate]	> 50%
O=C(O)c1cccc(N2CC(NC(=S)Nc3ccc(Cl)cc3)C2)c1-n1cccc1 [Example 175, 3-(3-(3-(4-chlorophenyl)thioureido)azetidin-1-yl)-2-(1H-pyrrol-1-yl)benzoic acid]	< 10%
COC(=O)c1cccc(N2CC(NS(=O)(=O)c3ccc(C)cc3)C2)c1-n1cccc1 [Example 176, Methyl 3-(3-((4-methylphenyl)sulfonamido)azetidin-1-yl)-2-(1H-pyrrol-1-yl)benzoate]	10 to 30%
Cc1ccc(S(=O)(=O)NC2CN(c3cccc(C(=O)O)c3-n3cccc3)C2)cc1 [Example 177, 3-(3-((4-methylphenyl)sulfonamido)azetidin-1-yl)-2-(1H-pyrrol-1-yl)benzoic acid]	< 10%
COC(=O)c1cccc(N2CC(NC(=O)c3ccccc3)C2)c1-n1cccc1 [Example 178, Methyl 3-(3-benzamidoazetidin-1-yl)-2-(1H-pyrrol-1-yl)benzoate]	10 to 30%
O=C(NC1CN(c2cccc(C(=O)O)c2-n2cccc2)C1)c1ccccc1 [Example 179, 3-(3-benzamidoazetidin-1-yl)-2-(1H-pyrrol-1-yl)benzoic acid]	< 10%

SMILES	inhibition at 50 µM
COC(=O)c1cccc(N2CC(NC(=O)c3ccccc3[N+](=O)[O-])C2)c1-n1cccc1 [Example 180, Methyl 3-(3-(2-nitrobenzamido)azetidin-1-yl)-2-(1H-pyrrol-1-yl)benzoate]	30 to 50%
O=C(NC1CN(c2cccc(C(=O)O)c2-n2cccc2)C1)c1ccccc1[N+](=O)[O-] [Example 181, 3-(3-(2-nitrobenzamido)azetidin-1-yl)-2-(1H-pyrrol-1-yl)benzoic acid]	< 10%
COC(=O)c1cccc(N2CC(NS(=O)(=O)C3CC3)C2)c1-n1cccc1 [Example 182, Methyl 3-(3-(cyclopropylsulfonamido)azetidin-1-yl)-2-(1H-pyrrol-1-yl)benzoate]	10 to 30%
O=C(O)c1cccc(N2CC(NS(=O)(=O)C3CC3)C2)c1-n1cccc1 [Example 183, 3-(3-(cyclopropylsulfonamido)azetidin-1-yl)-2-(1H-pyrrol-1-yl)benzoic acid]	< 10%
COC(=O)c1cccc(N2CC(N(Cc3ccccc3)S(=O)(=O)c3ccc(C)cc3)C2)c1-n1cccc1 [Example 184, Methyl 3-(3-((N-benzyl-4-methylphenyl)sulfonamido)azetidin-1-yl)-2-(1H-pyrrol-1-yl)benzoate]	< 10%
Cc1ccc(S(=O)(=O)N(Cc2ccccc2)C2CN(c3cccc(C(=O)O)c3-n3cccc3)C2)cc1 [Example 185, 3-(3-((N-benzyl-4-methylphenyl)sulfonamido)azetidin-1-yl)-2-(1H-pyrrol-1-yl) benzoic acid]	< 10%
O=C(O)c1cccc(-c2cn(-c3ccc(CO)cc3)nn2)c1-c1ccc2cc[nH]c2c1 [Example 186, 3-(1-(4-(hydroxymethyl)phenyl)-1H-1,2,3-triazol-4-yl)-2-(1H-indol-6-yl)benzoic acid]	< 10%
COC(=O)c1cccc(N2CC(Oc3ccc(O)cc3)C2)c1-n1cccc1 [Example 187, Methyl 3-(3-(4-hydroxylphenoxy)azetidin-1-yl)-2-(1H-pyrrol-1-yl)benzoate]	< 10%
O=C(O)c1cccc(N2CC(Oc3ccc(O)cc3)C2)c1-n1cccc1 [Example 188, 3-(3-(4-hydroxylphenoxy)azetidin-1-yl)-2-(1H-pyrrol-1-yl)benzoic acid]	< 10%
COC(=O)c1cccc(N2CC(Sc3ccc(C)cc3)C2)c1-n1cccc1 [Example 190, Methyl 2-(1H-pyrrol-1-yl)-3-(3-(p-tolylthio)azetidin-1-yl)benzoate]	< 10%
COC(=O)c1cccc(N2CC([S+]([O-])c3ccc(C)cc3)C2)c1-n1cccc1 (stereo not shown) [Example 191, Methyl 2-(1H-pyrrol-1-yl)-3-(3-(p-tolylsulfinyl)azetidin-1-yl)benzoate]	10 to 30%
COC(=O)c1cccc(N2CC(S(=O)(=O)c3ccc(C)cc3)C2)c1-n1cccc1 [Example 192, Methyl 2-(1H-pyrrol-1-yl)-3-(3-(p-tolylsulfonyl)azetidin-1-yl)benzoate]	10 to 30%
Cc1ccc([S+]([O-])C2CN(c3cccc(C(=O)O)c3-n3cccc3)C2)cc1 (stereo not shown) [Example 193]	< 10%
COC(=O)c1cccc(N2CC(Oc3ccc(Oc4ccc(Cl)cc4)cc3)C2)c1-n1cccc1 [Example 194, Methyl 3-(3-(4-(4-chlorophenoxy)phenoxy)azetidin-1-yl)-2-(1H-pyrrol-1-yl)benzoate]	< 10%
O=C(O)c1cccc(N2CC(Oc3ccc(Oc4ccc(Cl)cc4)cc3)C2)c1-n1cccc1 [Example 195, 3-(3-(4-(4-chlorophenoxy)phenoxy)azetidin-1-yl)-2-(1H-pyrrol-1-yl)benzoic acid]	10 to 30%
COC(=O)c1cccc(N2CC(Oc3ccc(Oc4cccc(OC)c4)cc3)C2)c1-n1cccc1 [Example 196, Methyl 3-(3-(4-(3-methoxyphenoxy)phenoxy)azetidin-1-yl)-2-(1H-pyrrol-1-yl)benzoate]	< 10%
COC(=O)c1cccc(N2CC(Oc3ccc(Oc4ccccc4)c(Cl)c3)C2)c1-n1cccc1 [Example 198, Methyl 3-(3-(3-chloro-4-phenoxyphenoxy)azetidin-1-yl)-2-(1H-pyrrol-1-yl)benzoate]	< 10%
O=C(O)c1cccc(N2CC(Oc3ccc(Oc4ccccc4)c(Cl)c3)C2)c1-n1cccc1 [Example 199, 3-(3-(3-chloro-4-phenoxyphenoxy)azetidin-1-yl)-2-(1H-pyrrol-1-yl)benzoic acid]	30 to 50%
COC(=O)c1cccc(N2CC(Oc3ccc(Oc4ccccc4)c(F)c3)C2)c1-n1cccc1 [Example 200, Methyl 3-(3-(3-fluoro-4-phenoxyphenoxy)azetidin-1-yl)-2-(1H-pyrrol-1-yl)benzoate]	< 10%
O=C(O)c1cccc(N2CC(Oc3ccc(Oc4ccccc4)c(F)c3)C2)c1-n1cccc1 [Example 201, 3-(3-(3-fluoro-4-phenoxyphenoxy)azetidin-1-yl)-2-(1H-pyrrol-1-yl)benzoic acid]	30 to 50%
